How the values were obtained:
CD4+ lymphocytes = assay: CD4+ proliferation assay (αCD3/αCD28 stimulation, 3H-methylthymidin incorporation); type: cell-based; conditions: Lymphocyte, αCD3/αCD28 stimulated CD4+ lymphocytes, 48 h incubation, read-out: Inhibition of CD4+ cell proliferation [measured as IC50 (μmol/l)]
Procedure: (§1) CD4+ lymphocytes were purified as described by Hatzelmann and Schudt (J Pharmacol Exp Ther 297: 267-279) and resuspended in assay medium (RPMI 1640/10% fetal calf serum (FCS) containing 2 mM Glutamine, 1% sodiumpyruvate, 1% non-essential amino acids and 1% penicillin/streptomycin) at a density of 1×10^6 cells/ml. 96 well plates were coated with αCD3 antibodies (0.3 μg/well; Ortho-clone OKT-3, Jansen-Cilag) for 2.5 h at 37° C. in 5% CO2 and then washed twice with PBS (200 μl/well). Prior to plating of the cells (200 μl, 2×10^5 cells) the compounds of formula 1 dissolved in 2% DMSO were added to the antibody-coated plates at the desired concentrations. Following a preincubation period of 30 min at 37° C. and 5% CO2 10 μl of αCD28 antibody (3 μg/ml, Beckman) were added and incubation continued for 48 h at 37° C. and 5% CO2. 18 h prior to cell harvest 10 μl of ^3H-methylthymidin (0.2 μCi, Amersham) were added. After 48 h total incubation time the cells were lysed using deionized water and radiolabeled DNA was immobilized on 96 well filter plates using a Tomtec device. The plates were dried at 60° C. for 1 h and overlayed with 40 μl Microscint-O (Packard) before counting in a Topcount radioactivity counter (Packard). Calculation of IC50 values was performed as described above.

CD4+ T lymphocytes = assay: CD4+ IL-2 secretion assay (ELISA of supernatants); type: cell-based; conditions: αCD3/αCD28 stimulated CD4+ T lymphocytes, 48 h incubation, IL-2 in supernatants by ELISA; read-out: Inhibition of IL-2 secretion in CD4+ cell [measured as IC50 (μmol/l)]
Procedure: as §1
CD4+ T lymphocytes were stimulated and treated with compounds of formula 1 as described above for the CD4+ proliferation assay. Following a 48 h incubation period IL-2 levels in the supernatants (50 μl/well) were determined by ELISA (Beckman Coulter). Calculation of IC50 values was performed as described above.

[1] = molecular target: recombinant human PKC-θ enzyme (Homo sapiens, UniProt Q04759); assay: Protein Kinase C-θ assay (SPA, 33P-ATP phosphorylation of biotinylated substrate peptide); type: biochemical; conditions: 1 μM ATP, 40 min at room temperature, 1% DMSO, read-out: Inhibition of PKC-θ activity [measured as IC50 (μmol/l)]
Procedure: The compounds of formula 1 were tested for their activity on PKC-θ according to the following method. The assay was performed in 96 well microtiter plates (Perkin Elmer Wallac) at a final assay volume of 200 μl. The reaction mixture (50 μl) contained 10 μl of recombinant human PKC-θ enzyme together with 5 μl of the test compound and 3 μM biotinylated PKC-θ substrate peptide (Biotin-RKRQRSMRRRVHOH), 160 μM phosphatidylserine, 0.3 mg/ml BSA, 1 μM ATP and 2 μCi of ^33γ-ATP (Amersham) in 40 mM Tris-buffer pH 7.4. Incubation was performed for 40 min at room temperature. The reaction was stopped by adding 150 μl of a mixture containing 10 mM ATP and 1.33 mg/ml streptavidin coated yttrium silicate SPA beads (Amersham). Incorporated radioactivity (cpm) was measured for 2 min in a radioactivity counter (Wallac MicroBeta JET). […] IC50 values for inhibition of PKC-θ were calculated from the concentration-inhibition curves by nonlinear-regression.

recombinant human PKC-θ enzyme, sequence (Q04759 whole entry): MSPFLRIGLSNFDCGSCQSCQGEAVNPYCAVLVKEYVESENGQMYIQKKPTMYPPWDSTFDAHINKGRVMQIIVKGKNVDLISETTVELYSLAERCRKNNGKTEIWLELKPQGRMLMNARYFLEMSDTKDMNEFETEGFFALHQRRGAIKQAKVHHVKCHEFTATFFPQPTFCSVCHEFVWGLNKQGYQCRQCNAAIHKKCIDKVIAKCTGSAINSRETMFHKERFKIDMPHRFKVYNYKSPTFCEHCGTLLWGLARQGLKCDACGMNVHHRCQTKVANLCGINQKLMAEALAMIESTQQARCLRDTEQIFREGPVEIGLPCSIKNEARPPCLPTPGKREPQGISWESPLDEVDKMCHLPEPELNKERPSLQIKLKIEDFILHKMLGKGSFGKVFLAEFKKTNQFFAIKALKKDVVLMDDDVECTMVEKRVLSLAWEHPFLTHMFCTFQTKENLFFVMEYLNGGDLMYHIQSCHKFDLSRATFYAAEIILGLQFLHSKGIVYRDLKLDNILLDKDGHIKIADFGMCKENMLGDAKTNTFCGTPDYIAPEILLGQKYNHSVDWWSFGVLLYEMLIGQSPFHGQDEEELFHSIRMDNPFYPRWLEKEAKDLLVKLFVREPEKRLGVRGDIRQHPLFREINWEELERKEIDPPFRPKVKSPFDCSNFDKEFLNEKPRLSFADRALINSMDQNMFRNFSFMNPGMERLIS

Which results are given for `c1ccc(CN2CCC(Nc3nc(NCc4ccncc4)ncc3-c3cccs3)CC2)cc1` [Example 8, {5-(2-Thienyl)-2-[(4-pyridylmethyl)amino)pyrimidin-4-yl}[1-benzyl(4-piperidyl)]amine]?
IC50 (CD4+ lymphocytes): < 4 µmol/L; IC50 (CD4+ T lymphocytes): < 4 µmol/L

`c1ccc(CN2CCC(Nc3nc(NCc4ccccn4)ncc3-c3ccoc3)CC2)cc1` [Example 13, {5-(3-Furanyl)-2-[(2-pyridylmethyl)amino)pyrimidin-4-yl}[1-benzyl(4-piperidyl)]amine] was tested. Which IC50 [1] did it give?
The IC50 was less than 4 µmol/L.

And the IC50 (CD4+ T lymphocytes)?
Its IC50 is less than 4 µmol/L.

For `CC(=O)c1cccc(-c2cnc(NCc3ccccn3)nc2NC2CCN(Cc3ccccc3)CC2)c1` [Example 22, 1-(3-[4-(1-Benzyl-piperidinylamino)-2-[(pyridin-2-ylmethyl)-amino]-pyrimidin-5-yl}phenyl)-ethanone], which IC50 [1] is on record?
Its IC50 is less than 4 µmol/L.

Which IC50 [1] does the source give for `CC(=O)c1ccc(-c2cnc(NCc3ccccn3)nc2NC2CCN(Cc3ccccc3)CC2)cc1` [Example 21] here?
Its IC50 is less than 4 µmol/L.

Which IC50 [1] does the source give for `c1ccc(CN2CCC(Nc3nc(NCc4ccccn4)ncc3-c3cccs3)CC2)cc1` [Example 14, {5-(2-Thienyl)-2-[(2-pyridylmethyl)amino)pyrimidin-4-yl}[1-benzyl(4-piperidyl)]amine] here?
Its IC50 is less than 4 µmol/L.

What about the IC50 (CD4+ lymphocytes) of the same molecule?
Its IC50 is less than 4 µmol/L.

What about the IC50 (CD4+ T lymphocytes) of the same molecule?
Its IC50 is less than 4 µmol/L.

With `NC(=O)c1ccc(-c2cnc(NCc3ccncc3)nc2NC2CCN(Cc3ccccc3)CC2)cc1` [Example 6, {5-(Phenyl-4-carboxamido)-2-[(4-pyridylmethyl)amino)pyrimidin-4-yl}[1-benzyl(4-piperidyl)]-amine] as the molecule, how does the IC50 (CD4+ T lymphocytes) read?
Its IC50 is less than 4 µmol/L.

For `c1ccc(CN2CCC(Nc3nc(NCc4ccccn4)ncc3-c3ccsc3)CC2)cc1` [Example 1, [1-Benzyl(4-piperidyl)]{2-[(2-pyridylmethyl)amino]-5-(3-thienyl)pyrimidin-4-yl}amine], which IC50 [1] is on record?
The IC50 was less than 4 µmol/L.

What about the IC50 (CD4+ lymphocytes) of the same molecule?
Its IC50 is less than 4 µmol/L.

And the IC50 (CD4+ T lymphocytes)?
The IC50 was less than 4 µmol/L.

How did the IC50 [1] turn out when `NC(=O)c1ccc(-c2cnc(NCc3ccccn3)nc2NC2CCN(Cc3ccccc3)CC2)cc1` [Example 15] was run?
Its IC50 is less than 4 µmol/L.

And the IC50 (CD4+ lymphocytes)?
Its IC50 is less than 4 µmol/L.

And the IC50 (CD4+ T lymphocytes)?
The IC50 was less than 4 µmol/L.

What does the source list for `c1ccc(CN2CCC(Nc3nc(NCc4ccccn4)ncc3-c3ccco3)CC2)cc1` [Example 12, {5-(2-Furanyl)-2-[(2-pyridylmethyl)amino)pyrimidin-4-yl}[1-benzyl(4-piperidyl)]amine]?
IC50 [1]: < 4 µmol/L; IC50 (CD4+ T lymphocytes): < 4 µmol/L

Reference: US20050222186A1, “Substituted diaminopyrimidines” (Altana Pharma AG, priority 2002, published 2005)
